# Assay results taken from ChEMBL document CHEMBL1142628, “Antineoplastic agents 430. Isolation and structure of cribrostatins 3, 4, and 5 from the republic of maldives cribrochalina species” (2000).
# Calls of active or inactive are those of the source. The rule behind the calls is not given here.
# Assays:
# Cryptococcus neoformans [1] = assay: Antifungal activity against Cryptococcus neoformans ATCC 90112 by disk diffusion method; type: functional
# Micrococcus luteus [2] = assay: Antibacterial activity against Micrococcus luteus Presque Isle 456 by disk diffusion method; type: functional
# Staphylococcus aureus [3] = assay: Antibacterial activity against Staphylococcus aureus ATCC 29213 by disk diffusion method; type: functional
# Enterococcus faecalis = assay: Antibacterial activity against Enterococcus faecalis ATCC 29212 at 100 ug/disk by disk diffusion method; type: functional, organism-based
# Bacillus subtilis [4] = assay: Antibacterial activity against Bacillus subtilis Presque Isle 620 by disk diffusion method; type: functional
# Streptococcus pneumoniae [5] = assay: Antibacterial activity against Streptococcus pneumoniae ATCC 6303 by disk diffusion method; type: functional
# Streptococcus pneumoniae [6] = assay: Antibacterial activity against penicillin-resistant Streptococcus pneumoniae isolate by disk diffusion method; type: functional
# Streptococcus pneumoniae [7] = assay: Antibacterial activity against invasive Streptococcus pneumoniae isolate by disk diffusion method; type: functional
# [8] = system: Streptococcus sp. 'group A'; assay: Antibacterial activity against group A Streptococcus isolate at 100 ug/disk by disk diffusion method; type: functional, organism-based
# [9] = system: Stenotrophomonas maltophilia; assay: Antibacterial activity against Stenotrophomonas maltophilia ATCC 13637 at 100 ug/disk by disk diffusion method; type: functional, organism-based
# Escherichia coli = assay: Antibacterial activity against Escherichia coli ATCC 25922 at 100 ug/disk by disk diffusion method; type: functional, organism-based
# Enterobacter cloacae = assay: Antibacterial activity against Enterobacter cloacae ATCC 13047 at 100 ug/disk by disk diffusion method; type: functional, organism-based
# Neisseria gonorrhoeae = assay: Antibacterial activity against Neisseria gonorrhoeae ATCC 49226 by disk diffusion method; type: functional
# Candida albicans [10] = assay: Antifungal activity against Candida albicans ATCC 90028 by disk diffusion method; type: functional
# Candida albicans [11] = assay: Antifungal activity against Candida albicans ATCC 90028 at 100 ug/disk by disk diffusion method; type: functional, organism-based
# Cryptococcus neoformans [12] = assay: Antifungal activity against Cryptococcus neoformans ATCC 90112 at 100 ug/disk by disk diffusion method; type: functional, organism-based
# Micrococcus luteus [13] = assay: Antibacterial activity against Micrococcus luteus Presque Isle 456 at 100 ug/disk by disk diffusion method; type: functional, organism-based
# Staphylococcus aureus [14] = assay: Antibacterial activity against Staphylococcus aureus ATCC 29213 at 100 ug/disk by disk diffusion method; type: functional, organism-based
# Bacillus subtilis [15] = assay: Antibacterial activity against Bacillus subtilis Presque Isle 620 at 100 ug/disk by disk diffusion method; type: functional, organism-based
# Streptococcus pneumoniae [16] = assay: Antibacterial activity against Streptococcus pneumoniae ATCC 6303 at 100 ug/disk by disk diffusion method; type: functional, organism-based
smiles,measurement,setting,value
CCOC1=C(C)C(=O)c2cc(=O)n(C)cc2C1=O [CRIBROSTATIN 2],MIC,Cryptococcus neoformans [1],12.5 µg/disc
same,MIC,Micrococcus luteus [2],50 µg/disc
same,MIC,Staphylococcus aureus [3],12.5 µg/disc
same,Activity,Enterococcus faecalis,inactive
same,MIC,Bacillus subtilis [4],25 µg/disc
same,MIC,Streptococcus pneumoniae [5],12.5 µg/disc
same,MIC,Streptococcus pneumoniae [6],25 µg/disc
same,MIC,Streptococcus pneumoniae [7],50 µg/disc
same,Activity,[8],inactive
same,Activity,[9],inactive
same,Activity,Escherichia coli,inactive
same,Activity,Enterobacter cloacae,inactive
same,MIC,Neisseria gonorrhoeae,0.39 µg/disc
same,MIC,Candida albicans [10],3.12 µg/disc
CC1=C(N)C(=O)c2c(ccnc2C)C1=O [CRIBROSTATIN 1],Activity,Candida albicans [11],inactive
same,Activity,Cryptococcus neoformans [12],inactive
same,Activity,Micrococcus luteus [13],inactive
same,Activity,Staphylococcus aureus [14],inactive
same,Activity,Enterococcus faecalis,inactive
same,Activity,Bacillus subtilis [15],inactive
same,Activity,Streptococcus pneumoniae [16],inactive
same,Activity,[9],inactive
same,Activity,Escherichia coli,inactive
same,Activity,Enterobacter cloacae,inactive
same,MIC,Neisseria gonorrhoeae,0.39 µg/disc
